Consider eleven compounds from US20050203176A1, “Carbamates as HIV anti-viral agents” (WYETH, priority 2004, published 2005).

Assay [1] addresses T1, HIV reverse transcriptase (RNase H activity) (Human immunodeficiency virus type 1 group M subtype B, UniProt P04585).
T1 construct: HIV reverse transcriptase has an RNase H domain at the C-terminus of its p66 subunit
The experiment in a line: RNase H / HIV reverse transcriptase inhibition (fluorescent probe-target hybrid assay). Type of assay: biochemical. The settings on record: inhibition of HIV reverse transcriptase / RNase H, Table I. The text has this: Preferably, the RNase H/HIV reverse transcriptase modulatory activity of the compounds of the present invention may be determined by the methods described in copending U.S. provisional patent Application No. 60/436,125, filed Dec. 19, 2003 and PCT Application Ser. No. WO 2004/059012, filed Dec. 22, 2003, published Jul. 15, 2004, entitled ASSAY FOR RNase ACTIVITY of Olsen et al., incorporated herein by reference in their entirety. Specifically, the modulatory activity of a carbamate derivative of the present invention may be determined by hybridizing a target nucleic acid to a fluorescently labeled oligonucleotide probe complementary to the target nucleic acid and containing a fluorophor at one terminus and a quenching group at the other terminus to obtain a probe-target hybrid, wherein (i) the unhybridized probe adopts a conformation that places the fluorophor and quencher in such proximity that the quencher quenches the fluorescent signal of the fluorophor, and (ii) the formation of the probe-target hybrid causes sufficient separation of the fluorophor and quencher to reduce quenching of the fluorescent signal of the fluorophor. Next, a first and second sample containing the probe-target hybrid are prepared. The probe-target hybrid of the first sample is then contacted with an RNase H enzyme (such as HIV reverse transcriptase) in an amount sufficient to selectively cleave the target nucleic acid and thereby release the intact probe. The probe-target hybrid of the second sample is also contacted with the RNase H enzyme in an amount sufficient to selectively cleave the target nucleic acid and thereby release the intact probe in the presence of a candidate carbamate derivative of the present invention. The release of the probe in each sample may then be detected by measuring the […] in the fluorescent signal of the fluorophor as compared to the signal of the probe-target hybrid. A comparison of the rate of the decrease in the fluorescent signal of the fluorophor in the two samples is made to determine whether there is a difference in the rate of the decrease in the two samples. […] This method is also useful to identify carbamate derivatives of the present invention, wherein candidate carbamate derivatives are screened for their ability to modulate RNase/HIV reverse transcriptase activity.

For assay [2], the target named is T2, HIV Reverse transcriptase (RT) p66/p51, RDDP activity (Human immunodeficiency virus type 1 group M subtype B, UniProt P04585).
T2 construct: […]; purchased Worthington
The assay is described as follows: RNA dependent DNA polymerase (RDDP) activity of HIV RT, 33P TTP incorporation with polyrA-oligodT12-18. Format: biochemical.

Assay [3] relates to HIV-1 infection. The settings on record: cited from earlier work.

Read-outs that look alike come from different tables or passages of the source.

Consider “2-[(2,4-dimethylphenyl)amino]-2-oxoethyl dibenzyl(phenyl)dithiocarbamate [Example 8]”, for which the IC50 in assay [1] was 41.5 µM; in assay [2] (inhibition of polymerase (RDDP) activity of HIV reverse transcriptase, Table II, read-out: IC50), above 80 µM.
In the case of `Cc1cn([C@H]2C[C@H](N=[N+]=[N-])[C@@H](CO)O2)c(=O)[nH]c1=O` [AZT, zidovudine, reference compound], the IC50 in assay [2] was below 0.2 µM.
As to `Cc1ccc(NC(=O)CSC(=S)N(Cc2ccccc2)Cc2ccccc2)c(C)c1` [Example 1, 2-[(2,4-dimethylphenyl)amino]-2-oxoethyl dibenzyldithiocarbamate], the IC50 stood at 3.1 µM in assay [1] and 30 µM in assay [2].
Regarding `O=C(CSC(=S)N(Cc1ccccc1)Cc1ccccc1)Nc1ccc(Cl)c(Cl)c1Cl` [Example 2, 2-oxo-2-[(2,3,4-trichlorophenyl)amino]ethyl dibenzyldithiocarbamate], the IC50 was 3.3 µM in assay [1] and above 80 µM in assay [2].
For `N#Cc1cccc(NC(=O)CSC(=S)N(Cc2ccccc2)Cc2ccccc2)c1` [Example 3, 2-[(3-cyanophenyl)amino]-2-oxoethyl dibenzyldithiocarbamate], in that order: 4.7 µM and above 80 µM.
For the compound `O=C(CSC(=S)N(Cc1ccccc1)Cc1ccccc1)Nc1ccc(Cl)cc1Cl` [Example 4, 2-[(2,4-dichlorophenyl)amino]-2-oxoethyl dibenzyldithiocarbamate], the IC50 in assay [1] was 5.8 µM; in assay [2], above 160 µM.
Take `COc1ccc(C)cc1NC(=O)CSC(=S)N(Cc1ccccc1)c1ccccc1` [Example 5, 2-[(2-methoxy-5-methylphenyl)amino]-2-oxoethyl benzyl(phenyl)dithiocarbamate]: the IC50 is 8.3 µM in assay [1] and above 80 µM in assay [2].
For `N#Cc1cccc(NC(=O)CSC(=S)N(Cc2ccccc2)c2ccccc2)c1` [Example 6, 2-[(3-cyanophenyl)amino]-2-oxoethyl benzyl(phenyl)dithiocarbamate], in that order: 11.4 µM and above 80 µM.
For `O=C(CSC(=S)N(Cc1ccccc1)c1ccccc1)Nc1ccc(Cl)c(Cl)c1Cl` [Example 7, 2-oxo-2-[(2,3,4,-trichlorophenyl)amino]ethyl benzylphenyl dithiocarbamate] the same measures were 26.6 µM and above 80 µM.
For `COc1ccc(C)cc1NC(=O)CSC(=S)N(Cc1ccccc1)Cc1ccccc1` [Example 9], in that order: 46.2 µM and above 80 µM.
For the compound `CCN(CC)C(=S)S` [diethyldicarbamate], in assay [3] (3 placebo patients had died from AIDS), the “patients who died during eighteen-month follow up” value was “none”. For the same compound, the “patients with AIDS at the end of the study” value in assay [3] (HIV-1 patients Walter Reed stages 2-4, 24 weeks treatment, 6 of the placebo patients had AIDS) is recorded as “no patient”. The disease progression result in assay [3] (HIV-1 patients, group that received the drug vs placebo) is “Significantly delayed disease progression”.
